Where a name gives a salt, the structure may show the parent alone. Read-outs that look alike come from different tables or passages of the source.
Columns and labels:
Type in all cases: biochemical
Abl kinase = target: T1, Abl kinase (Homo sapiens, UniProt P00519); assay: Abl kinase assay A1 (pyruvate kinase/lactate dehydrogenase coupled, spectrophotometric)
T1 sequence (P00519 229-512): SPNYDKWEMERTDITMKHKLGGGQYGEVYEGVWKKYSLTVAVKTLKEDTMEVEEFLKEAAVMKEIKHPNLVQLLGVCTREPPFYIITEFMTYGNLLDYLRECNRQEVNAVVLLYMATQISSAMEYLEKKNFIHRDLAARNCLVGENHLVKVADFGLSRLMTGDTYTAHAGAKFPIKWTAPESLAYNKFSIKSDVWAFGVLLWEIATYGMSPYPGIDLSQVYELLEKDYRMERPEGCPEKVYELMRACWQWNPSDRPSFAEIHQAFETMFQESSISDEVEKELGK
Procedure: (§1) IC50 values were calculated from a series of percent inhibition values determined at a range of inhibitor concentrations using software routines as implemented in the GraphPad Prism software package.

KDR kinase = KDR kinase (Homo sapiens, UniProt P35968, DEL940-989/E990V); assay: KDR kinase assay K1 (pyruvate kinase/lactate dehydrogenase coupled, spectrophotometric)
KDR kinase, sequence (P35968 with tags, fused parts or gaps DEL940-989/E990V): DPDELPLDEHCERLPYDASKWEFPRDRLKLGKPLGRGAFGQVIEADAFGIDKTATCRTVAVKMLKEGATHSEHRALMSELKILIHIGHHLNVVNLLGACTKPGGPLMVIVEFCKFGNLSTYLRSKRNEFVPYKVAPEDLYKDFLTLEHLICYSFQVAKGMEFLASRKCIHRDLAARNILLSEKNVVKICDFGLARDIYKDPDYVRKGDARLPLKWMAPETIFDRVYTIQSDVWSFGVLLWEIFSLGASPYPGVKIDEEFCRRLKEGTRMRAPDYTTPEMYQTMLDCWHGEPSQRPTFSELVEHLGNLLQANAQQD
Procedure: as §1

B-Raf(V599E) kinase = B-Raf(V599E) kinase (Homo sapiens, UniProt P15056, V600E); assay: B-Raf(V599E) kinase assay B1 (construct 1, MEK1 substrate, coupled spectrophotometric)
B-Raf(V599E) kinase, sequence (P15056 with tags, fused parts or gaps V600E): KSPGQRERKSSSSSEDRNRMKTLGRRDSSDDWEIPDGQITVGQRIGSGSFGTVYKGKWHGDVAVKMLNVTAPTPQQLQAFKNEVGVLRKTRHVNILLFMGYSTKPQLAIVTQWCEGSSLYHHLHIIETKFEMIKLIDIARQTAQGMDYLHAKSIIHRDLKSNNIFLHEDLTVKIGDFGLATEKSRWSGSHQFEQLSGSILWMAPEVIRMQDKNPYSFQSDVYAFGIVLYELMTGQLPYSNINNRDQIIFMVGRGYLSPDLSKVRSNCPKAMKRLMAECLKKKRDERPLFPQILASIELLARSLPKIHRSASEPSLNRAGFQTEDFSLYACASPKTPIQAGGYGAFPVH
Procedure: The test compounds were incubated with the reaction mixtureat 30° C. for 2 h. […] The reaction rate was calculated using the […] time frame. […] IC50 values were calculated from a series of percent inhibition values determined at a range of inhibitor concentrations using software routines as implemented in the GraphPad Prism software package.

[1] = target: phosphorylated p-38-alpha kinase (Homo sapiens, UniProt Q16539); assay: P-38 alpha kinase assay P1 (coupled spectrophotometric, 2 h pre-incubation)
phosphorylated p-38-alpha kinase, sequence (Q16539 1-360 isoform Q16539-2): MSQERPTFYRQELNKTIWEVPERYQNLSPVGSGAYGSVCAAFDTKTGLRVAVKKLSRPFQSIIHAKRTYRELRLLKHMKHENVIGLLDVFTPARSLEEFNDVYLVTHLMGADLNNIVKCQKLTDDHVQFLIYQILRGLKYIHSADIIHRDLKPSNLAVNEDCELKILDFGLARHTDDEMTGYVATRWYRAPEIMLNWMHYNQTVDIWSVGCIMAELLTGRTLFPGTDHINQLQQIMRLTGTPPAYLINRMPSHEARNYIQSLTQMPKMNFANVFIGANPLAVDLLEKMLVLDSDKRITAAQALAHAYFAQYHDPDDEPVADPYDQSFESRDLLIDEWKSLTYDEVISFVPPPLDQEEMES

[2] = Method A1, read-out: Abl Data (IC50)
[3] = Method K1, read-out: KDR Data (IC50)
[4] = method P1 (2 h pre-incubation), read-out: P-38 Data

| SMILES | IC50 (Abl kinase; [2]) [nM] | IC50 (KDR kinase; [3]) [nM] | IC50 (B-Raf(V599E) kinase) [nM] | IC50 [1, 4] [nM] | IC50 (Abl kinase) [nM] | IC50 (KDR kinase) [nM] | IC50 [1] [nM] |
| --- | --- | --- | --- | --- | --- | --- | --- |
| CC(C)(C)c1cc(NC(=O)Nc2cccc(Cl)c2Cl)n(-c2cccc(CO)c2)n1 [Example 1, 1-[3-t-butyl-1-(3-hydroxymethyl-phenyl)-1H-pyrazol-5-yl]-3-(2,3-dichlorophenyl)urea] | 310 | 130 | 4.6 | 11 | – | – | – |
| CC(C)(C)c1cc(NC(=O)Nc2cccc(Cl)c2Cl)n(-c2cccc(C(N)=O)c2)n1 [Example 13, 1-[3-t-butyl-1-(3-carbamoylphenyl)-1H-pyrazol-5-yl]-3-(2,3-dichlorophenyl)urea] | 2000 | 360 | 5.2 | 45 | – | – | – |
| CC(C)(C)c1cc(NC(=O)Nc2cccc(Cl)c2Cl)n(-c2ccc(C(C)(C)O)cc2)n1 [Example 20, 1-{3-t-butyl-1-[4-(2-hydroxypropan-2-yl)phenyl]-1H-pyrazol-5-yl}-3-(2,3-dichlorophenyl)urea] | 1600 | 130 | 8.5 | 60 | – | – | – |
| CC(C)(C)c1cc(NC(=O)Nc2cccc(Cl)c2Cl)n(-c2cccc(CCO)c2)n1 [Example 24, 1-{3-t-butyl-1-[3-(2-hydroxyethyl)phenyl]-1H-pyrazol-5-yl}-3-(2,3-dichlorophenyl)urea] | 830 | 380 | 2.3 | 11 | – | – | – |
| CC(C)(C)c1cc(NC(=O)Nc2cccc(Cl)c2Cl)n(-c2cccc(C(=N)N)c2)n1 [Example 44, 1-[3-t-butyl-1-(3-carbamimidoylphenyl)-1H-pyrazol-5-yl]-3-(2,3-dichlorophenyl)urea] | 440 | 2400 | 4 | 70 | – | – | – |
| CC(C)(C)c1cc(NC(=O)Nc2cccc(Cl)c2Cl)n(-c2ccc(CCO)cc2)n1 [Example 45, 1-{3-t-butyl-1-[4-(2-hydroxyethyl)-phenyl]-1H-pyrazol-5-yl}-3-(2,3-dichlorophenyl)urea] | 780 | 360 | 6.2 | 5 | – | – | – |
| CC(C)(C)c1cc(NC(=O)Nc2cccc(Cl)c2Cl)n(-c2cccc(CCC(=O)O)c2)n1 [Example 46, 3-(3-{3-t-Butyl-5-[3-(2,3-dichloro-phenyl)ureido]-1H-pyrazol-1-yl}-phenyl)propionic acid] | 2500 | 170 | 3.3 | 6 | – | – | – |
| CC(C)(C)c1cc(NC(=O)Nc2cccc(Cl)c2Cl)n(-c2cc(CO)c3ccccc3c2)n1 [Example 60, 1-[5-t-butyl-2-(4-hydroxymethylnaphthalen-2-yl)-2H-pyrazol-3-yl]-3-(2,3-dichloro-phenyl)urea] | 63 | 62 | 2.6 | 18 | – | – | – |
| CC(C)(C)c1cc(NC(=O)Nc2cccc(Cl)c2Cl)n(-c2cc(CN)c3ccccc3c2)n1 [Example 69, 1-[1-(4-(aminomethyl)naphthalen-2-yl)-3-t-butyl-1H-pyrazol-5-yl]-3-(2,3-dichlorophenyl)urea] | 140 | 400 | 4.2 | 110 | – | – | – |
| CC(C)(C)c1cc(NC(=O)Nc2cccc(Cl)c2Cl)n(-c2cc(CNC(=O)NS(C)(=O)=O)c3ccccc3c2)n1 [Example 75, 1-{3-t-butyl-1-[1-(methanesulfonylureidoamidomethyl)naphthalen-3-yl]-1H-pyrazol-5-yl}-3-(2,3-dichlorophenyl-1-yl)urea] | 63 | 140 | 4.2 | 6 | – | – | – |
| CC(C)(C)c1cc(NC(=O)Nc2cccc(Cl)c2Cl)n(-c2ccc3c(c2)NCC3)n1 [Example 112, 1-(3-t-butyl-1-(indolin-6-yl)-1H-pyrazol-5-yl)-3-(2,3-dichlorophenyl)urea] | 480 | 210 | 2.9 | 12 | – | – | – |
| CC(C)(C)c1cc(NC(=O)Nc2cccc(Cl)c2Cl)n(-c2ccc3c(c2)C(=O)NCC3)n1 [Example 122, 1-[3-t-butyl-1-(1-oxo-1,2,3,4-tetrahydroisoquinolin-7-yl)-1H-pyrazol-5-yl]-3-(2,3-di-chlorophenyl)urea] | 2800 | 1400 | 11 | 130 | – | – | – |
| CC(=O)N1CCc2ccc(-n3nc(C(C)(C)C)cc3NC(=O)Nc3cccc(Cl)c3Cl)cc2C1 [Example 126, 1-[1-(2-acetyl-1,2,3,4-tetrahydroisoquinolin-7-yl)-3-t-butyl-1H-pyrazol-5-yl]-3-(2,3-dichlorophenyl)urea] | 440 | 210 | 6.5 | 10 | – | – | – |
| CC(C)(C)c1cc(NC(=O)Nc2cccc(Cl)c2Cl)n(-c2ccc3c(c2)CN(S(C)(=O)=O)CC3)n1 [Example 127, 1-{3-t-butyl-1-[2-(methanesulfonyl)-1,2,3,4-tetrahydroisoquinolin-7-yl]-1H-pyrazol-5-yl}-3-(2,3-dichlorophenyl)urea] | 220 | 220 | 3.4 | 13 | – | – | – |
| CC(C)(C)c1cc(NC(=O)Nc2cccc(Cl)c2Cl)n(-c2ccc3c(c2)C(N)=NCC3)n1 [Example 129, 1-[1-(1-amino-3,4-dihydroisoquinolin-7-yl)-3-t-butyl-1H-pyrazol-5-yl]-3-(2,3-dichlorophenyl)urea] | 270 | 500 | 4.2 | 130 | – | – | – |
| CC(C)(C)c1cc(NC(=O)Nc2cccc(Cl)c2Cl)n(-c2ccc3c(c2)CCC(=O)N3)n1 [Example 131, 1-[3-t-butyl-1-(2-oxo-1,2,3,4-tetrahydroquinolin-6-yl)-1H-pyrazol-5-yl]-3-(2,3-dichlorophenyl)urea] | 280 | 77 | 1.9 | 33 | – | – | – |
| CC(C)(C)c1cc(NC(=O)Nc2cccc(Cl)c2Cl)n(-c2ccc3c(c2)CCCN3)n1 [Example 135, 1-[3-t-butyl-1-(1,2,3,4-tetrahydroquinolin-6-yl)-1H-pyrazol-5-yl]-3-(2,3-dichlorophenyl)urea hydrochloride] | – | – | 4.5 | – | 840 | 270 | 44 |
| CC(C)(C)c1cc(NC(=O)Nc2cccc(Cl)c2Cl)n(-c2ccc3c(c2)CCCN3C(=N)N)n1 [Example 136, 1-[3-t-butyl-1-(1-amidino-1,2,3,4-tetrahydroquinolin-6-yl]-1H-pyrazol-5-yl)-3-(2,3-dichlorophenyl)urea] | 100 | 29 | 4.9 | 130 | – | – | – |
| CC(C)(C)c1cc(NC(=O)Nc2cccc(Oc3ccccc3)c2)n(-c2ccc3c(c2)CCNC3)n1 [Example 140, 1-(3-t-butyl-1-(1,2,3,4-tetrahydro-isoquinolin-6-yl)-1H-pyrazol-5-yl)-3-(3-phenoxyphenyl)urea] | 120 | 2300 | 4.6 | – | – | – | – |
| CC(C)(C)c1cc(NC(=O)Nc2ccc(Oc3ccccc3)cc2)n(-c2ccc3c(c2)CCNC3)n1 [Example 143, 1-(3-t-butyl-1-(1,2,3,4-tetrahydroiso-quinolin-6-yl)-1H-pyrazol-5-yl)-3-(4-phenoxyphenyl)-urea] | 250 | 940 | 14 | – | – | – | – |
| CNC(=O)[C@@H]1Cc2ccc(-n3nc(C(C)(C)C)cc3NC(=O)Nc3cccc(Cl)c3Cl)cc2CN1 [Example 187, 1-(3-t-butyl-1-((3S)-3-(methylcarbamoyl)-1,2,3,4-tetrahydroisoquinolin-7-yl)-1H-pyrazol-5-yl)-3 (2,3-dichlorophenyl)urea] | 560 | 150 | 3 | – | – | – | – |

Reference: patent US8163756B2 (priority 2004, dated 2012)
